Results: publication PMC12867150, “A fungi-derived cyclic peptide enhances Th9-mediated antitumor immunity by targeting ZAP70 and SREBP1” (The Journal of Clinical Investigation, 2025)

How the values were obtained:
IL9, IRF4, and SPI1 mRNA = assay: Quantitative PCR of IL9, IRF4 and SPI1 in human Th9 cells (Figure 8C); assay type: cell-based; conditions: result in words
Method: For Th9 polarization, cultures were supplemented with IL-4 (10 ng/mL, PeproTech, catalog AF-200-04), TGF-β (1 ng/mL), and neutralizing anti–IFN-γ monoclonal antibody (10 μg/mL, clone B27, BioXcell, catalog BE0245). After 3 days of initial culture, cells were either collected for downstream assays or continued in extended culture with refreshed cytokines to maintain lineage commitment without antibodies. Th9 cells were collected at days 4, 5, and 6 for subsequent in vitro assays. For adoptive transfer studies, day 4–cultured Th9 cells were washed and prepared for intravenous injection.
Total RNA was extracted from T cells using RNAex Pro Reagent (AG, catalog AG21102) following the manufacturer’s instructions. First-strand complementary DNA (cDNA) was synthesized using the Hifair III 1st Strand cDNA Synthesis SuperMix (YEASEN, catalog 11137ES10). Quantitative real-time PCR (qRT-PCR) was conducted on a QuantStudio 3 Real-Time PCR System (Thermo Fisher Scientific) using ChamQ Universal SYBR qPCR Master Mix (Vazyme, catalog Q711-02) and gene-specific primers (Tsingke Biotech).
For normalization, mouse samples were referenced to Gapdh or Actb, and human samples were normalized to GAPDH. Relative gene expression was calculated using the ΔΔCt method. Primer sequences are listed in Supplemental Table 5.

Raji-luciferase tumor = assay: Raji-luciferase xenograft, survival (Figure 8L); assay type: in vivo, NSG mice; conditions: EpA-treated human Th9 CAR T cells 2 × 10^6 i.v.; n = 5; result in words
Text: Representative plots (A) and quantification (B) (n = 4). (C) Quantitative PCR analysis of IL9, IRF4, and SPI1 mRNA expression in human Th9 cells (n = 3). (D) Flow-cytometric analysis of mitochondrial membrane potential in human Th9 cells (n = 3). (E) Luciferase-based assay analysis of intracellular ATP levels in human Th9 cells (n = 5). (F) Flow-cytometric analysis of phosphorylated ZAP70 in human Th9 cells (n = 3). (G) Flow-cytometric analysis of TNF-α expression in human Th9 cells (n = 4). (H) Cytotoxicity assay of EpA-treated or control CD19 CAR Th9 cells against Raji lymphoma target cells at indicated effector-to-target (E/T) ratios (n = 3). (I) Schematic diagram of the in vivo Raji-luciferase xenograft model in NSG mice receiving control or EpA-treated human Th9 CAR T cells. (J and K) Representative bioluminescence imaging (J) and quantification of tumor radiance (K) in NSG mice at indicated time points after adoptive transfer. […] Statistical significance was determined using 2-tailed unpaired Student’s t test (B–H), 2-way ANOVA followed by Šidák’s post hoc test (K), and log-rank test (L). […]
For xenograft models, M-NSG mice were intravenously inoculated with 1 × 10^6 Raji-CD19 tumor cells. […] Tumor progression and immune cell infiltration were subsequently monitored according to experimental endpoints.

## anteiso-C15 Leu7 surfactin [EpA]
IL9, IRF4, and SPI1 mRNA
  IL9, IRF4, SPI1 mRNA: upregulated
Raji-luciferase tumor
  survival: significantly prolonged survival
